Holding throughout (format): cell-based
The test system of one assay is DTC. The assay can be described thus: Total intracellular reduced glutathione (GSH) in drug tolerant cells. The settings on record: acute (3 hours) exposure; ML-265 10 μM, catalase 2000 U/ml. On the procedure:
In vitro detection of glucose uptake was performed using 2-(N-7-Nitrobenz-2-oxa-1,3-diazol-4-yl)Amino)-2-Deoxyglucose (2-NBDG) (Invitrogen, Carlsbad Calif.), dissolved in DMSO to 50 mM. Cells were pre-treated with kinase inhibitors or vehicle for 3 hours in glucose- and phenol red-free media before addition of 50 μM 2-NBDG and subsequently read by FACS ex/em 488/535 nm. ROS was determined by pre-loading cells with CM-DCFDA (1 μM), washed 2 times with PBS and subsequently treated with H2O2 or vehicle; when kinase inhibitors were included in treatment, cells were first incubated with inhibitor for 3 hours prior to CM-DCFDA loading. Fluorescence was then determined by FACS ex/em 488/535 nm. For the following assays, cells were trypsinized and counted by Nexcelom cell counter (Lawrence, Mass.) prior to being subjected to analysis in order to achieve a quantitative value per cell: Reduced glutathione was determined using a colorimetric glutathione recycling system by DTNB following manufacturer protocol (Biovision, Milpitas Calif.). […] Protein synthesis was measured by two means 1. […] Fluorescence was detected by FACS as described below. […] GFP protein translation was determined by fluorescent microscopy. […] Individual cells were evaluated for fluorescent intensity of caspase-3 activity (red signal intensity) and green fluorescent protein intensity. […]

For assay [1], the system named is MDA-MB-231 parent or DTC. The assay can be described thus: Glucose uptake (2-NBDG) determined by FACS. The settings on record: for 2-NBDG uptake after exogenously-added cytokines: MDA-MB-231 parent cells, 24 hours incubation, 50 ng/ml; for suppression of glucose consumption (2-NBDG uptake): incubation 3 h, DTC compared to drug naïve parent cells. On the procedure: (§1) MDA-MB-231 (ATCC), MDA-MB-468 and 4T-1 mammary carcinoma cells (ATCC) were cultured in DMEM containing 10% Fetal Bovine Serum (FBS) at 37 C and 5% CO2. DU145 and DU145-TxR were provided by A. Mizokami^63 and cultured in DMEM containing 10% FBS, resistant line included 100 nM paclitaxel in the culture media. During treatments with chemotherapeutics, cells were grown to semi-confluence and treated with indicated concentrations of chemotherapy in serum-containing medium for indicated time points. When small molecule inhibitors were included in treatments, they were added simultaneously with chemotherapy. For siRNA gene knockdown, cells were transfected with silencer-select siRNA plasmids (Ambion, Invitrogen, Grand Island, N.Y.) pan-CD44(1) (s2682) panCD44(2) (s2681), siHIF1A (s6539) using lipofectamine 2000 (Invitrogen, Carlsbad Calif.) following manufacturer protocol and cultured for 72 hours prior to treatment. Scrambled siRNA was used as a control. For chemotherapy treatment experiments: Cancer cells were plated at a density of 0.5-1×10^5 cells/ml and allowed to adhere for 24-48 hr. When cells reached ˜70% confluency they were treated with cytotoxics at indicated concentrations for 24-48 hours and utilized for subsequent assays. For experiments in which a shorter incubation was used (i.e. 15 min-4 hours) fresh media was added 24 hours prior to addition of chemotherapy suspended to stock concentration in PBS. For generation of DTC: Cells were treated for 48 hours with chemotherapy. Following washes with PBS, adherent cells were trypsinized and re-plated at a density of 1.5-2×10^5 cells/ml and cultured in serum-containing medium. After 24 hours incubation, floating cells were removed and remaining cells were washed with 1× PBS and considered as chemotherapy-tolerant cells. A population of drug naïve parent cells were always cultured alongside DTC and fresh media was added at every interval that experimental population (DTC) received fresh media.
In vitro detection of glucose uptake was performed using 2-(N-7-Nitrobenz-2-oxa-1,3-diazol-4-yl)Amino)-2-Deoxyglucose (2-NBDG) (Invitrogen, Carlsbad Calif.), dissolved in DMSO to 50 mM. Cells were pre-treated with kinase inhibitors or vehicle for 3 hours in glucose- and phenol red-free media before addition of 50 μM 2-NBDG and subsequently read by FACS ex/em 488/535 nm. ROS was determined by pre-loading cells with CM-DCFDA (1 μM), washed 2 times with PBS and subsequently treated with H2O2 or vehicle; when kinase inhibitors were included in treatment, cells were first incubated with inhibitor for 3 hours prior to CM-DCFDA loading. Fluorescence was then determined by FACS ex/em 488/535 nm. For the following assays, cells were trypsinized and counted by Nexcelom cell counter (Lawrence, Mass.) prior to being subjected to analysis in order to achieve a quantitative value per cell: Reduced glutathione was determined using a colorimetric glutathione recycling system by DTNB following manufacturer protocol (Biovision, Milpitas Calif.). ATP analysis was performed using the ATP colorimetric analysis kit (Biovision) according to manufacturer protocol. Reductive stress was detected using the Enzo nitroreductase hypoxia kit (Enzo Life Sciences, Ann Arbor Mich.) following manufacturer protocol and visualized by fluorescent microscopy; a set of non-docetaxel-treated control cells loaded with fluorescent probe were compared against docetaxel-treated cells to derive a % redox stress increase which was calculated as fluorescence intensity of nitroreductase probe per cell and expressed as increase from vehicle. Protein synthesis was measured by two means 1. L-azidohomoalanine amino acid analog of methionine containing an azide moiety was added to cultured cells (parent or DTC) for 3 hours which is incorporated into proteins during active protein synthesis. […]
A general note: A flow cytometer gives signals particle by particle.

The next assay has as its system CD44. The assay can be described thus: Cell surface CD44 expression by FACS. The settings on record: for CD44 expression after exogenous cytokine: MDA-MB-231, within 4 hours. On the procedure:
DU145 and DU145-TxR were provided by A. Mizokami^63 and cultured in DMEM containing 10% FBS, resistant line included 100 nM paclitaxel in the culture media. During treatments with chemotherapeutics, cells were grown to semi-confluence and treated with indicated concentrations of chemotherapy in serum-containing medium for indicated time points. When small molecule inhibitors were included in treatments, they were added simultaneously with chemotherapy. […] Scrambled siRNA was used as a control. For chemotherapy treatment experiments: Cancer cells were plated at a density of 0.5-1×10^5 cells/ml and allowed to adhere for 24-48 hr. […] Following washes with PBS, adherent cells were trypsinized and re-plated at a density of 1.5-2×10^5 cells/ml and cultured in serum-containing medium. […] A population of drug naïve parent cells were always cultured alongside DTC and fresh media was added at every interval that experimental population (DTC) received fresh media.
Cells were cultured as indicated, removed from culture dishes with accutase stem-pro dissociation reagent (Invitrogen, Carlsbad Calif.) and fixed with 4% paraformaldehyde in PBS for 30 min at RT, washed twice with PBS and blocked in 10% goat serum (v/v). Whenever necessary, cells were permeabilized with 0.05% saponin in PBS. Cells were incubated with CD44-APC (BD biosciences, San Jose, Calif.) overnight at 4 C and analyzed by FACS (C6 Accuri cyomteters Inc Ann Arbor, Mich.), data analysis using FlowJo software (Tree Star Inc., Ashland Oreg.) and Accuri cFlow plus software to obtain and confirm mean fluorescent intensity (GNU.org).

Assay [2] relates to MDA-MB-231 parent or DTC. Nature of the assay: Cell viability (MTS) and trypan blue exclusion of parent or DTC treated with doxorubicin. On the procedure:
as §1
Following drug incubation, cells were washed and suspended in phenol red-free RPMI or DMEM and subsequently treated with MTS reagent using manufacturer protocol (Promega, Madison, Wis.). Trypan blue exclusion was used to validate experiments and evaluate % of dead cells performed by bright field microscopy.

In the case of `Cn1c2cc([S+](C)[O-])sc2c2cnn(Cc3cccc(N)c3)c(=O)c21` (stereo not shown) [ML-265], the “total levels of reduced glutathione (GSH) in DTC” value with DTC is reported as “diminished total levels of reduced glutathione in DTC”.
Turning to “IL-6: recombinant cytokine purchased from Biolegend”, the “2-NBDG uptake after exogenously-added cytokines” value in the assay with MDA-MB-231 parent or DTC [1] is recorded as “didn't observe any alterations in 2-NBDG uptake”.
Take “IFN-γ: recombinant cytokine purchased from Biolegend”: the “2-NBDG uptake after exogenously-added cytokines” value with MDA-MB-231 parent or DTC [1] was “didn't observe any alterations in 2-NBDG uptake”. For the same molecule, the “CD44 expression after exogenous cytokine” value in the assay on CD44 is reported as “able to independently drive CD44 expression in a dose-dependent manner”.
As to `COc1cccc2c1C(=O)c1c(O)c3c(c(O)c1C2=O)C[C@@](O)(C(=O)CO)C[C@@H]3O[C@H]1C[C@H](N)[C@H](O)[C@H](C)O1` [doxorubicin, (1S,3S)-3-Glycoloyl-3,5,12-trihydroxy-10-methoxy-6,11-dioxo-1,2,3,4,6,11-hexahydro-1-tetracenyl 3-amino-2,3,6-trideoxy-α-L-lyxo-hexopyranoside], the “response of DTC to doxorubicin (trypan blue exclusion)” value with MDA-MB-231 parent or DTC [2] (72 h, DTC vs parent) is on record as “DTC developed resistance”. In addition, the “doxorubicin-mediated toxicity with PPP intermediates” value with MDA-MB-231 parent or DTC [2] (drug naïve parent cells co-treated with exogenous NADPH, GSH or ectopic G6PD expression) is listed as “reduction of doxorubicin-mediated toxicity”.
As to “GM-CSF: recombinant cytokine purchased from Biolegend”, in the assay with MDA-MB-231 parent or DTC [1], the “2-NBDG uptake after exogenously-added cytokines” value is “didn't observe any alterations in 2-NBDG uptake”. In addition, in the assay on CD44, the “CD44 expression after exogenous cytokine” value was “able to independently drive CD44 expression in a dose-dependent manner”.
Turning to `Cc1ccc(S(=O)(=O)/C=C/C#N)cc1` [Bay-11], the “chemotherapy early-induced CD44 expression” value in the assay on CD44 (DTX 25 nM, 4 h, Bay-11 10 μM, neutralizing antibodies 2 μg/ml) was “modulated chemotherapy early-induced CD44 expression”.
Turning to `CO[C@H]1C[C@@H]2CC[C@@H](C)[C@@](O)(O2)C(=O)C(=O)N2CCCC[C@H]2C(=O)O[C@H]([C@H](C)C[C@@H]2CC[C@@H](OCCO)[C@H](OC)C2)CC(=O)[C@H](C)/C=C(\C)[C@@H](O)[C@@H](OC)C(=O)[C@H](C)C[C@H](C)/C=C/C=C/C=C/1C` [Everolimus, 40-O-(2-hydroxyethyl)-rapamycin], the “suppression of glucose consumption (2-NBDG uptake)” value with MDA-MB-231 parent or DTC [1] is recorded as “greater suppression of glucose consumption in the DTC subset compared to drug naïve parent cells”.
With `Oc1cccc(-c2nc(N3CCOCC3)c3oc4ncccc4c3n2)c1` [PI103, 3-(4-(4-Morpholinyl)pyrido[3′,2′:4,5]furo[3,2-d]pyrimidin-2-yl)phenol], the “suppression of glucose consumption (2-NBDG uptake)” value with MDA-MB-231 parent or DTC [1] is given as “greater suppression of glucose consumption in the DTC subset compared to drug naïve parent cells”. Further, the “response to dox in combination with inhibitor, DTC” value in the assay with MDA-MB-231 parent or DTC [2] (DTC, co-incubated with dox, 48 h, PI103 5 μM, lonidamine 10 μM, KB-458 and KB-697 10 μM) is reported as “exquisitely responsive, overtly driven to cell death by dox in combination”. The “response to dox in combination with inhibitor, parent cells” value in the assay on MDA-MB-231 parent or DTC [2] (drug naïve parent cells, co-incubated with dox, 48 h) is “little synergism or a reversion of synergy”.
“IL-8: recombinant cytokine purchased from Biolegend”: the “2-NBDG uptake after exogenously-added cytokines” value in the assay with MDA-MB-231 parent or DTC [1] is given as “didn't observe any alterations in 2-NBDG uptake”.

B1: IL-23: recombinant cytokine purchased from Biolegend (protein, UniProt Q9NPF7 20-189; P29460 23-328, looked up)
Interleukin-23 subunit alpha: RAVPGGSSPAWTQCQQLSQKLCTLAWSAHPLVGHMDLREEGDEETTNDVPHIQCGDGCDPQGLRDNSQFCLQRIHQGLIFYEKLLGSDIFTGEPSLLPDSPVGQLHASLLGLSQLLQPEGHHWETQQIPSLSPSQPWQRLLLRFKILRSLQAFVAVAARVFAHGAATLSP
Interleukin-12 subunit beta: IWELKKDVYVVELDWYPDAPGEMVVLTCDTPEEDGITWTLDQSSEVLGSGKTLTIQVKEFGDAGQYTCHKGGEVLSHSLLLLHKKEDGIWSTDILKDQKEPKNKTFLRCEAKNYSGRFTCWWLTTISTDLTFSVKSSRGSSDPQGVTCGAATLSAERVRGDNKEYEYSVECQEDSACPAAEESLPIEVMVDAVHKLKYENYTSSFFIRDIIKPDPPKNLQLKPLKNSRQVEVSWEYPDTWSTPHSYFSLTFCVQVQGKSKREKKDRVFTDKTSATVICRKNASISVRAQDRYYSSSWSEWASVPCS
For the molecule B1, in the assay on MDA-MB-231 parent or DTC [1], the “2-NBDG uptake after exogenously-added cytokines” value is recorded as “didn't observe any alterations in 2-NBDG uptake”. Further, the “CD44 expression after exogenous cytokine” value with CD44 is on record as “able to independently drive CD44 expression in a dose-dependent manner”.
